Legend:
Aβ1-42 protein = biological target: T1, Aβ1-42 protein (Homo sapiens, UniProt P05067); experiment: Percentage of Aβ1-42 protein fibrillization by ThT fluorescence (FIG. 18, 19); assay type: biochemical; design: percentage of Aβ fibrillization compared to the control: unit of the concentration uncertain; conditions: for effect on Aβ protein aggregation and/or tau protein accumulation: incubated with Aβ1-42 for 24 hours at 37° C.
T1 construct: aggregated amyloid beta 1-42 (Aβ1-42)
Description: FIG. 18 is an analysis showing a percentage of Aβ1-42 protein fibrillization using thioflavin T (ThT) florescence in various samples. The sample on the left is a control of Aβ1-42 protein. […] The third sample from the left is Aβ protein treated with 10 mM Aconitine. And the fourth sample from the left is Aβ1-42 protein treated with 20 mM Aconitine.
FIG. 19 is an analysis showing an amount of Aβ1-42 protein fibrillization using thioflavin T (ThT) fluorescence in various samples. The sample on the left is a control of Aβ1-42 protein. The second sample from the left is Aβ1-42 protein treated with 200 mM of bergenin. The third sample from the left is Aβ1-42 protein treated with 300 mM bergenin.
The various compounds were incubated with Aβ1-42 for 24 hours at 37° C. to determine the effect of compounds on defibrillation. Further, testing was done to determine an effect of the compounds on tau protein.
Referring to FIG. 18, FIG. 18 is a bar graph 1800 showing a percentage of Aβ protein fibrillization in various samples. The sample on the left is a control 1805 of Aβ protein. […] The third sample 1815 from the left is Aβ protein treated with 10 mM aconitine. And the fourth sample 1820 from the left is Aβ protein treated with 20 mM aconitine.
The intensity for the control 1805 is normalized to 100.
The third sample 1815 includes a concentration of 10 mM aconitine. […] The fourth sample 1820 includes a concentration of 20 mM aconitine.
Referring to FIG. 19, FIG. 19 is a bar graph 1900 showing an amount of Aβ protein in various samples. The sample on the left is a control 1905 of Aβ protein. The second sample 1910 from the left is Aβ protein treated with 200 mM bergenin. The third sample 1915 from the left is Aβ protein treated with 300 mM bergenin.
The control 1905 on the left side of the bar graph 1900, which just contains Aβ protein is normalized to 100. The measurement of the percentage of the Aβ protein in the control 1905 that aggregates into Aβ fibrils is compared against solutions containing bergenin.
The second sample 1910 contains 200 mM bergenin. […] The third sample 1915 contained 300 mM bergenin.

[1] = tested on: neurons with Aβ treatment; experiment: Cell survival assay of various compositions (FIG. 29); assay type: cell-based; conditions: Aβ control 61.7592%
Description: (§1) Orientin, vitexin, and bergenin were detected as possible targets based on identification via Liquid Chromatography—mass Spectrometry (LC-MS) from Synaptecx-227 and verified via mass spectrometric (MS) analysis. Aβ1-42 defibrillation analysis and Aβ1-42 cell survival were performed for various combinations of the above identified targets.
In the control sample with Aβ treatment, the % of surviving neurons is 61.7592% (p value<0.0001 ****).

Aβ = biological target: T2, Aβ (Homo sapiens, UniProt P05067); experiment: Fibrillization assay of various compositions (FIG. 28); assay type: biochemical; conditions: control 100% fibrillization
T2 construct: aggregated amyloid beta 1-42 (Aβ1-42)
T2 sequence (P05067 672-713): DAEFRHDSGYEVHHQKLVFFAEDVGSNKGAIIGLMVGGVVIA
Description: as §1
The sample treated with a 20 micromolar concentration of orientin, 20 micromolar concentration of vitexin, and 50 micromolar concentration of bergenin decreased Aβ fibrillization by 48.9989% (p value<0.0001 ****).

T1 sequence (P05067 672-713): as above

| Compound | effect on Aβ protein aggregation and/or tau protein accumulation (Aβ1-42 protein) | decrease of Aβ fibrillization (Aβ; 20 micromolar) [%] | cell survival ([1]; 20 micromolar) [%] | also measured |
| --- | --- | --- | --- | --- |
| CCN1C[C@]2(COC)[C@H](O)C[C@H](OC)[C@@]34[C@@H]5C[C@@]6(O)[C@H](OC(=O)c7ccccc7)[C@@H]5[C@@](OC(C)=O)([C@@H]([C@H](OC)[C@H]23)[C@@H]14)[C@@H](O)[C@@H]6OC [aconitine] | reducing a percentage of Aβ protein aggregation as compared to a control and/or reducing a percentage of tau protein accumulation as compared to a control | – | – | percentage of Aβ fibrillization compared to the control (Aβ1-42 protein; 10 (unit uncertain)): 82.0%; percentage of Aβ fibrillization compared to the control (Aβ1-42 protein; 20 (unit uncertain)): 74.8% |
| O=C(N[C@@H](Cc1ccccc1)C(=O)N[C@H](CO)Cc1ccccc1)c1ccccc1 [aurantiamide] | – | 24.8578 | – | cell survival ([1]; 10 micromolar): 71.5173% |
| COc1c(O)cc2c(c1O)[C@@H]1O[C@H](CO)[C@@H](O)[C@H](O)[C@H]1OC2=O [bergenin] | reducing a percentage of Aβ protein aggregation as compared to a control and/or reducing a percentage of tau protein accumulation as compared to a control | – | – | cell survival ([1]; 50 micromolar): 76.2308%; decrease of Aβ fibrillization (Aβ; 50 micromolar): 31.9532% |
| O=c1cc(-c2ccc(O)c(O)c2)oc2c([C@@H]3O[C@H](CO)[C@@H](O)[C@H](O)[C@H]3O)c(O)cc(O)c12 [orientin] | – | 29.2843 | 77.8195 | – |
| O=c1cc(-c2ccc(O)cc2)oc2c([C@@H]3O[C@H](CO)[C@@H](O)[C@H](O)[C@H]3O)c(O)cc(O)c12 [vitexin] | – | 28.8579 | 73.4208 | – |
| swatinine | reducing a percentage of Aβ protein aggregation as compared to a control and/or reducing a percentage of tau protein accumulation as compared to a control | – | – | – |

From US20230165884A1, “METHOD AND COMPOSITION FOR TREATING ALZHEIMERS” (Cognitive Synergy Corporation, priority 2021, published 2023)
